# Data from patent US20060121449A1, “Method for selection of compounds which inhibit clonal cell growth and use thereof” (priority 2002, published 2006).
# Several values for one entry are separate records, joined by “and”; a condition that tells them apart may be missing. Equal values may be shown once. Entries after “also recorded” stand apart in the source; their conditions may differ.
# Tested on: polyoma virus transformed BHK21/c13 cells, line S100T1
# Assay: Collocation inhibition test: clonal growth in sparsely and densely seeded areas of a cell density gradient of S100T1 cells in soft agar (Exp 13, 17, 19-26);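 note: soft agar cultures in 24-well plates with a cell density gradient in the top layer, compounds applied from DMSO stocks, clonal growth scored in sparse versus dense areas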
# Conditions: for Growth of treated wells with smallest cell number: 42000 cells/ml; for Growth in low density (sparsely seeded) areas of treated wells: 125000-375000 cells/ml; for Significance: Exp 17 day 14; for Resulting clonal growth of treated cultures: Experiment 26
# [1] = Exp 13, 4-OH-OPB 1-3 μM, Colchicine 0.01-0.1 μM
# [2] = Exp 13, Low inhibitor conc. (4-OH—OPB 1 μM, Colchicine 10 nM), H: high cell density area
# [3] = Exp 13, Low inhibitor conc. (4-OH—OPB 1 μM, Colchicine 10 nM), L: low cell density area
# [4] = Exp 13, Medium inhibitor conc. (4-OH—OPB 3 μM, Colchicine 33 nM), H: high cell density area
# [5] = Exp 13, Medium inhibitor conc. (4-OH—OPB 3 μM, Colchicine 33 nM), L: low cell density area
# [6] = Exp 19, 120000 S100T1 cells/well
structure (smiles),measurement,setting,value
"CCCCC1(O)C(=O)N(c2ccccc2)N(c2ccc(O)cc2)C1=O (stereo not shown) [4-OH-OPB, 4-butyl-4-hydroxy-2(p-hydroxyphenyl)-1-phenyl-3,5-pyrazolidinedione]",Growth in locations with high cell density,[1],did not inhibit clonal growth
same,Growth in locations with low cell density (sparsely seeded cells),[1],full inhibition on clonal growth of sparsely seeded cells; also recorded: inhibited growth in locations with low cell density even when using low doses
same,"Growth, summary of results after 3 days incubation",[2],+++
same,"Growth, summary of results after 4 days incubation",[2],+++
same,"Growth, summary of results after 3 days incubation",[3],+−
same,"Growth, summary of results after 4 days incubation",[3],+−
same,"Growth, summary of results after 3 days incubation",[4],+++
same,"Growth, summary of results after 4 days incubation",[4],+++
same,"Growth, summary of results after 3 days incubation",[5],−
same,"Growth, summary of results after 4 days incubation",[5],−
same,Effect on growth in high- and low-density areas,"Exp 17, 144000 S100T1 cells/well","good growth of colonies in high-density areas, but no growth in low-density areas"
same,"Clonal growth, results read on the day 14","Exp 17, a: close to densely seeded cell areas, Low: Colchicine 0.1, Podophyllotoxin 0.3, Etoposide 20, 4-OH—OPB 0.67 μM in wells, DMSO 1.16 μl",++
same,"Clonal growth, results read on the day 14","Exp 17, a: close to densely seeded cell areas, Medium: Colchicine 0.3, Podophyllotoxin 0.9, Etoposide 60, 4-OH—OPB 2 μM in wells, DMSO 6.8 μl",++
same,"Clonal growth, results read on the day 14","Exp 17, b: sparsely seeded areas in the same agar culture, High: Colchicine 1, Podophyllotoxin 3, Etoposide 200, 4-OH—OPB 6.7 μM in wells, DMSO 29.2 μl",−
same,"Clonal growth, results read on the day 14","Exp 17, b: sparsely seeded areas in the same agar culture, Low: Colchicine 0.1, Podophyllotoxin 0.3, Etoposide 20, 4-OH—OPB 0.67 μM in wells, DMSO 1.16 μl",+
same,"Clonal growth, results read on the day 14","Exp 17, b: sparsely seeded areas in the same agar culture, Medium: Colchicine 0.3, Podophyllotoxin 0.9, Etoposide 60, 4-OH—OPB 2 μM in wells, DMSO 6.8 μl",−
same,Effect on growth in densely seeded areas,[6],no significant inhibition
same,Inhibition of growth in sparsely seeded areas,[6],significant at all concentrations
same,Clonal growth after 48 hours incubation,"Exp 19, high concentration, H: high cell density part of the gradient",++
same,Clonal growth after 48 hours incubation,"Exp 19, high concentration, L: low cell density part of the gradient",−
same,Clonal growth after 48 hours incubation,"Exp 19, low concentration (exact conc. only in figure), H: high cell density part of the gradient",++
same,Clonal growth after 48 hours incubation,"Exp 19, low concentration, L: low cell density part of the gradient",−
same,Clonal growth after 48 hours incubation,"Exp 19, medium concentration, H: high cell density part of the gradient",++
same,Clonal growth after 48 hours incubation,"Exp 19, medium concentration, L: low cell density part of the gradient",−
same,Concentration with no significant growth inhibition on denser populated areas,Exp 20,1 to 6 µM and 1 to 18 µM
same,"Inhibiting effect on densely seeded areas, higher doses (6-18 μM)",Exp 20,small or moderate
same,"Inhibiting effect on densely seeded areas, low doses (1 μM)",Exp 20,abscent
same,Clonal growth after 48 hours,"Exp 20, 4-OH—OPB 1 μM, cell number High 225000 (375′/ml), H: high cell density part",+++
same,Clonal growth after 48 hours,"Exp 20, 4-OH—OPB 1 μM, cell number High 225000 (375′/ml), L: low cell density part",−
same,Clonal growth after 48 hours,"Exp 20, 4-OH—OPB 1 μM, cell number Medium 75000 (125′/ml), H: high cell density part",++(+)
same,Clonal growth after 48 hours,"Exp 20, 4-OH—OPB 1 μM, cell number Medium 75000 (125′/ml), L: low cell density part",−
same,Clonal growth after 48 hours,"Exp 20, 4-OH—OPB 6 μM, cell number High 225000 (375′/ml), H: high cell density part",+
same,Clonal growth after 48 hours,"Exp 20, 4-OH—OPB 6 μM, cell number High 225000 (375′/ml), L: low cell density part",−
same,Clonal growth after 48 hours,"Exp 20, 4-OH—OPB 6 μM, cell number Medium 75000 (125′/ml), H: high cell density part",+
same,Clonal growth after 48 hours,"Exp 20, 4-OH—OPB 6 μM, cell number Medium 75000 (125′/ml), L: low cell density part",−
same,Clonal growth after 48 hours,"Exp 20, 4-OH—OPB 18 μM, cell number High 225000 (375′/ml), H: high cell density part",+
same,Clonal growth after 48 hours,"Exp 20, 4-OH—OPB 18 μM, cell number High 225000 (375′/ml), L: low cell density part",−
same,Clonal growth after 48 hours,"Exp 20, 4-OH—OPB 18 μM, cell number Medium 75000 (125′/ml), H: high cell density part",+
same,Clonal growth after 48 hours,"Exp 20, 4-OH—OPB 18 μM, cell number Medium 75000 (125′/ml), L: low cell density part",−
same,Growth of treated wells with smallest cell number,Exp 20,did not grow even in dense areas
same,Growth of treated wells with smallest cell number,"Exp 20, listed as 4-OH—OPB","Low cell numbers, 42000 cells/ml gave no"
same,Growth in low density (sparsely seeded) areas of treated wells,Exp 20,very strong inhibition of growth
same,Growth in low density (sparsely seeded) areas of treated wells,"Exp 20, listed as 4-OH—OPB",growth. 125000-375000 cells/ml gave no
same,Concentration with anti clonal effect on sparsely seeded cells,"Exp 20, cross-titration of cell number and dose, 48 hours",1 µM and 1 to 18 µM
same,Clonal growth,"Exp 21, 117000 cells per well, Low concentration (see figure), H: area with high cell density",++(+)
same,Clonal growth,"Exp 21, High concentration, H: area with high cell density",+
same,Clonal growth,"Exp 21, High concentration, L: area with low cell density",−
same,Clonal growth,"Exp 21, Low concentration, L: area with low cell density",+−
same,Clonal growth,"Exp 21, Medium concentration, H: area with high cell density",++(+)
same,Clonal growth,"Exp 21, Medium concentration, L: area with low cell density",−
same,"Growth in dense areas, high concentration","Exp 22, control inhibitor",absent
same,"Growth in dense areas, medium concentration","Exp 22, control inhibitor",doubtful
same,Effect on growth,"Exp 23, 180000 S100T1 cells/well",complete inhibition of clonal growth in sparsely seeded areas
same,Clonal growth in densely seeded areas at high or medium concentrations (9 and 3 μM),"Exp 24, control",reduced clonal growth
same,Effect at 0.11 μM,"Exp 24, control",The effect was gone
same,Effect at 0.11 μM,"Exp 25, control",no growth inhibition was observed
same,Effect at 3 μM,"Exp 25, control",substantial inhibition of the growth in densely seeded areas
same,"Densely seeded parts of the gradient, high concentration","Exp 26, read after 24 hours",did not affect the densely seeded parts of the gradient
same,"Inhibition of sparsely seeded cells, high and medium concentrations","Exp 26, read after 24 hours",nice and complete inhibition
same,"Sparsely seeded cells, low concentration","Exp 26, read after 24 hours",break through of clonal growth
same,Significance,"a: close to densely seeded cell areas, High: Colchicine 1, Podophyllotoxin 3, Etoposide 200, 4-OH—OPB 6.7 μM in wells, DMSO 29.2 μl",Probably
same,Significance,"a: close to densely seeded cell areas, Low: Colchicine 0.1, Podophyllotoxin 0.3, Etoposide 20, 4-OH—OPB 0.67 μM in wells, DMSO 1.16 μl",No
same,Significance,"a: close to densely seeded cell areas, Medium: Colchicine 0.3, Podophyllotoxin 0.9, Etoposide 60, 4-OH—OPB 2 μM in wells, DMSO 6.8 μl",No
same,Significance,"b: sparsely seeded areas, High: Colchicine 1, Podophyllotoxin 3, Etoposide 200, 4-OH—OPB 6.7 μM in wells, DMSO 29.2 μl",Yes
same,Significance,"b: sparsely seeded areas, Low: Colchicine 0.1, Podophyllotoxin 0.3, Etoposide 20, 4-OH—OPB 0.67 μM in wells, DMSO 1.16 μl",No
same,Significance,"b: sparsely seeded areas, Medium: Colchicine 0.3, Podophyllotoxin 0.9, Etoposide 60, 4-OH—OPB 2 μM in wells, DMSO 6.8 μl",Yes
same,Clonal growth,"Experiment 22, H: area with high cell density, High concentration",−
same,Clonal growth,"Experiment 22, H: area with high cell density, Low concentration",++
same,Clonal growth,"Experiment 22, H: area with high cell density, Medium concentration",(+)
same,Clonal growth,"Experiment 22, L: area with low cell density, High concentration",−
same,Clonal growth,"Experiment 22, L: area with low cell density, Low concentration",−
same,Clonal growth,"Experiment 22, L: area with low cell density, Medium concentration",−
same,Clonal growth,"Experiment 23, A (area with high cell density), High concentration, 48 hours",(+)
same,Clonal growth,"Experiment 23, A (area with high cell density), Low concentration, 48 hours",++(+)
same,Clonal growth,"Experiment 23, A (area with high cell density), Medium concentration, 48 hours",+
same,Clonal growth,"Experiment 23, B (area with low cell density), High concentration, 48 hours",−
same,Clonal growth,"Experiment 23, B (area with low cell density), Low concentration, 48 hours",−
same,Clonal growth,"Experiment 23, B (area with low cell density), Medium concentration, 48 hours",−
same,Clonal growth,"Experiment 24, H: area with high cell density, High concentration, 48 hours",+
same,Clonal growth,"Experiment 24, H: area with high cell density, Low concentration, 48 hours",++(+)
same,Clonal growth,"Experiment 24, H: area with high cell density, Medium concentration, 48 hours",+
same,Clonal growth,"Experiment 24, H: area with high cell density, X-low concentration, 48 hours",+(+)
same,Clonal growth,"Experiment 24, H: area with high cell density, XX-low concentration, 48 hours",++
same,Clonal growth,"Experiment 24, L: area with low cell density, High concentration, 48 hours",−
same,Clonal growth,"Experiment 24, L: area with low cell density, Low concentration, 48 hours",−
same,Clonal growth,"Experiment 24, L: area with low cell density, Medium concentration, 48 hours",−
same,Clonal growth,"Experiment 24, L: area with low cell density, X-low concentration, 48 hours",−
same,Clonal growth,"Experiment 24, L: area with low cell density, XX-low concentration, 48 hours",(+)
same,Clonal growth,"Experiment 25, H: area with high cell density, High concentration, after 48 hours incubation",(+)
same,Clonal growth,"Experiment 25, H: area with high cell density, Low concentration, after 48 hours incubation",++(+)
same,Clonal growth,"Experiment 25, H: area with high cell density, Medium concentration, after 48 hours incubation",++
same,Clonal growth,"Experiment 25, H: area with high cell density, X-low concentration, after 48 hours incubation",++
same,Clonal growth,"Experiment 25, L: area with low cell density, High concentration, after 48 hours incubation",−
same,Clonal growth,"Experiment 25, L: area with low cell density, Low concentration, after 48 hours incubation",−
same,Clonal growth,"Experiment 25, L: area with low cell density, Medium concentration, after 48 hours incubation",−
same,Clonal growth,"Experiment 25, L: area with low cell density, X-low concentration, after 48 hours incubation",++
same,Resulting clonal growth of treated cultures,"H: area with high cell density, High concentration, read after 24 hours",++
same,Resulting clonal growth of treated cultures,"H: area with high cell density, Low concentration, read after 24 hours",++
same,Resulting clonal growth of treated cultures,"H: area with high cell density, Medium concentration, read after 24 hours",++
same,Resulting clonal growth of treated cultures,"L: area with low cell density, High concentration, read after 24 hours",−
same,Resulting clonal growth of treated cultures,"L: area with low cell density, Low concentration, read after 24 hours",(+)
same,Resulting clonal growth of treated cultures,"L: area with low cell density, Medium concentration, read after 24 hours",−
same,Control of metastatic cells leaving tumour,"ability of cells to leave a tumour, grow and infiltrate locally or grow in sparsely seeded areas, concluded from Exp 17",yes
same,Control of settlement of metastatic cells,"single cells or very few cells spread to distant sites, concluded from Exp 17",completely
same,Toxicity for body or dense cell populations,"supposed main advantages or disadvantages if used in cancer treatment, concluded from Exp 17",none or small
same,Tolerating long duration of treatment,"supposed, if used in cancer treatment",yes
